Assay [1] has as its target T1, aggrecanase-1 (Homo sapiens, UniProt O75173).
T1 sequence (O75173 213-837): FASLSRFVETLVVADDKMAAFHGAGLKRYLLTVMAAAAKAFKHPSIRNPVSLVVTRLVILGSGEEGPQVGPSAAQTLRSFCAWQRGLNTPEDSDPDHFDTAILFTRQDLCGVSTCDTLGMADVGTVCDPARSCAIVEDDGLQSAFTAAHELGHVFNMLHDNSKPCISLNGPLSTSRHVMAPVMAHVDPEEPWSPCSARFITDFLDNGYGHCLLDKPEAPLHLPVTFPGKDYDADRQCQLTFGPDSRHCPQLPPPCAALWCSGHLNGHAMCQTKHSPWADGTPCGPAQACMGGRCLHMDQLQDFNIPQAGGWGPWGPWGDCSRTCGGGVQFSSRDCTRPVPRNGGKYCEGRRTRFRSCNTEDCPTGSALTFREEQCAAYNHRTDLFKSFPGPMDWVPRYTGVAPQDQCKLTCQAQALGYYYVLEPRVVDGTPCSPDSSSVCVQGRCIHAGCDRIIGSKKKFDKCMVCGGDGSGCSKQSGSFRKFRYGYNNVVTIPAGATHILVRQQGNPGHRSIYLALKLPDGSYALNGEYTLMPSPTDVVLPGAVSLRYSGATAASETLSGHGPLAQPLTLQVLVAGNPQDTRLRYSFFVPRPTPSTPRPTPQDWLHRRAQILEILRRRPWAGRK
The assay is described as follows: Aggrecanase-1 inhibitory action, Particle Assay (GAG release from aggrecan-containing polyacrylamide particles). The assay is classed as biochemical. As to conditions: 37° C. for 15 hr, read-out: Experimental Example 1 IC50 AG1. The gist of the method: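 Enzyme and test compound (DMSO dilutions) in Tris-HCl buffer incubated with aggrecan-containing polyacrylamide particles at 37 °C for 15 hr. Released GAG in supernatant quantified with 1,9-dimethylmethylene blue at 595 nm against whale chondroitin sulfate standard; % inhibition versus enzyme-free and inhibitor-free wells gives IC50 (μM).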

Assay [2] has as its target T2, MMP-1 (Homo sapiens, UniProt P03956).
T2 sequence (P03956 100-469): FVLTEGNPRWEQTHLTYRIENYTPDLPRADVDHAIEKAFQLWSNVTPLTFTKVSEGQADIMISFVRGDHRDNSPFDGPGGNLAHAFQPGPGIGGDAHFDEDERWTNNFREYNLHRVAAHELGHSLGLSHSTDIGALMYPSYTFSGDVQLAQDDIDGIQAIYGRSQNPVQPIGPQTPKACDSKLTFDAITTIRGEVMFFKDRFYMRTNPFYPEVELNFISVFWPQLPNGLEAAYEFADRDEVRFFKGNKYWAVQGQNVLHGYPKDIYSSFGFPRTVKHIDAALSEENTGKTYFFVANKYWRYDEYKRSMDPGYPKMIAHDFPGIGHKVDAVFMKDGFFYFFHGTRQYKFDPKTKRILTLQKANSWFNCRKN
Put plainly: MMP-1 inhibitory action, Type I collagen Activity Measurement kit (FITC-labeled collagen type I). The assay is classed as biochemical. The settings on record: 37° C. for 3 hr, read-out: Experimental Example 2 IC50 MMP1.

The IC50 is the point on the concentration scale where inhibition reaches its midpoint.

Turning to `O=C(O)c1cccn1CCN([C@]1(C(=O)O)C[C@H]1c1ccccc1)S(=O)(=O)c1ccc(-c2ccc(Cl)cc2)cc1` (relative stereo) [Example 1-69, 1-{2-[((1R*,2S*)-1-carboxy-2-phenyl-cyclopropyl)-(4′-chloro-biphenyl-4-sulfonyl)-amino]-ethyl}-1H-pyrrole-2-carboxylic acid], the results for the half-maximal inhibitory concentration (IC50) in assay [1] and in assay [2] were below 1 µM and at least 10 µM, respectively.
Consider `CC(C)(C)OC(=O)N1CCC([C@H]2C[C@]2(C(=O)O)N(Cc2cccc(C(=O)O)c2)S(=O)(=O)c2ccc(-c3ccc(Cl)cc3)cc2)CC1` (relative stereo) [Example 1-70, 4-{(1R*,2S*)-2-carboxy-2-[(3-carboxy-benzyl)-(4′-chloro-biphenyl-4-sulfonyl)-amino]-cyclopropyl}-piperidin-1-carboxylic acid tert-butyl ester], for which the IC50 in assay [1] is below 1 µM; in assay [2], at least 10 µM.
For the compound `O=C(O)[C@@]1(N(Cc2nsc(=O)[nH]2)S(=O)(=O)c2ccc(-c3ccc(Cl)cc3)cc2)C[C@H]1c1ccccc1` (relative stereo) [Example 1-71, (1R*,2S*)-1-[(4′-chloro-biphenyl-4-sulfonyl)-(5-oxo-4,5-dihydro-[1,2,4]thiadiazol-3-ylmethyl)-amino]-2-phenyl-cyclopropanecarboxylic acid], the IC50 in assay [1] is below 1 µM; in assay [2] it was at least 10 µM.
Take `O=C(O)[C@@]1(N(Cc2noc(=O)[nH]2)S(=O)(=O)c2ccc(-c3ccc(Cl)cc3)cc2)C[C@H]1c1cccc(Oc2ccccc2)c1` (relative stereo) [Example 1-72, (1R*,2S*)-1-[(4′-chloro-biphenyl-4-sulfonyl)-(5-oxo-4,5-dihydro-[1,2,4]oxadiazol-3-ylmethyl)-amino]-2-(3-phenoxy-phenyl)-cyclopropanecarboxylic acid]: the IC50 in assay [1] was below 0.1 µM; in assay [2], at least 10 µM.
The like results for `O=C(O)c1ncccc1CN([C@]1(C(=O)O)C[C@H]1c1ccccc1)S(=O)(=O)c1ccc(-c2ccc(Cl)cc2)cc1` (relative stereo) [Example 1-73, 3-{[((1R*, 2S*)-1-carboxy-2-phenyl-cyclopropyl)-(4′-chloro-biphenyl-4-sulfonyl)-amino]-methyl}-pyridin-2-carboxylic acid] were, in that order, below 1 µM and at least 10 µM.
On to `O=C(O)[C@@]1(N(CCNc2nnn[nH]2)S(=O)(=O)c2ccc(-c3ccc(Cl)cc3)cc2)C[C@H]1c1ccccc1` (relative stereo) [Example 1-77, (1R*,2S*)-1-{(4′-chloro-biphenyl-4-sulfonyl)-[2-(1H-tetrazol-5-ylamino)-ethyl]-amino}-2-phenyl-cyclopropanecarboxylic acid], for which the IC50 is below 1 µM in assay [1] and at least 10 µM in assay [2].
For `O=C(O)c1nccn1CCN([C@]1(C(=O)O)C[C@H]1c1ccccc1)S(=O)(=O)c1ccc(-c2ccc(Cl)cc2)cc1` (relative stereo) [Example 1-78, 1-{2-[((1R*,2S*)-1-carboxy-2-phenyl-cyclopropyl)-(4′-chloro-biphenyl-4-sulfonyl)-amino]-ethyl}-1H-imidazole-2-carboxylic acid], in that order: below 1 µM and at least 10 µM.
On to `O=C(O)[C@@]1(N(CCNS(=O)(=O)C(F)(F)F)S(=O)(=O)c2ccc(-c3ccc(Cl)cc3)cc2)C[C@H]1c1cccc(Oc2ccccc2)c1` (relative stereo) [Example 1-81, (1R*,2S*)-1-[(4′-chloro-biphenyl-4-sulfonyl)-(2-trifluoromethanesulfonylamino-ethyl)-amino]-2-(3-phenoxy-phenyl)-cyclopropanecarboxylic acid], for which the IC50 was below 1 µM in assay [1] and at least 10 µM in assay [2].
In the case of `CCN(CC)CCNc1cccc([C@@H]2C[C@@]2(C(=O)O)N(Cc2cccc(C(=O)O)c2)S(=O)(=O)c2ccc(-c3ccc(Cl)cc3)cc2)c1` (relative stereo) [Example 1-85, 3-{[{(1R*,2S*)-1-carboxy-2-[3-(2-diethylamino-ethylamino)-phenyl]-cyclopropyl}-(4′-chloro-biphenyl-4-sulfonyl)-amino]-methyl}-benzoic acid], the IC50 was below 1 µM in assay [1] and at least 10 µM in assay [2].
Consider `O=C(O)c1cccc(CN([C@]2(C(=O)O)C[C@H]2c2cccc(Nc3ccccn3)c2)S(=O)(=O)c2ccc(-c3ccc(Cl)cc3)cc2)c1` (relative stereo) [Example 1-86, 3-{[{(1R*,2S*)-1-carboxy-2-[3-(pyridin-2-ylamino)-phenyl]-cyclopropyl}-(4′-chloro-biphenyl-4-sulfonyl)-amino]-methyl}benzoic acid], for which the IC50 in assay [1] is below 0.1 µM; in assay [2] it was at least 10 µM.
Take `O=C(O)c1cccc(CN([C@]2(C(=O)O)C[C@H]2c2cccc(OCCO)c2)S(=O)(=O)c2ccc(-c3ccc(Cl)cc3)cc2)c1` (relative stereo) [Example 1-88, 3-{[{(1R*,2S*)-1-carboxy-2-[3-(2-hydroxy-ethoxy)-phenyl]-cyclopropyl}-(4′-chloro-biphenyl-4-sulfonyl)-amino]-methyl}-benzoic acid]: the figures for the IC50 in assay [1] and in assay [2] were below 0.1 µM and at least 10 µM, respectively.
Regarding `O=C(O)[C@@]1(N(CCNS(=O)(=O)C(F)(F)F)S(=O)(=O)c2ccc(-c3ccc(Cl)cc3)cc2)C[C@H]1c1cccc(NCCN2CCCCC2)c1` (relative stereo) [Example 1-89, (1R*,2S*)-1-[(4′-chloro-biphenyl-4-sulfonyl)-(2-trifluoromethanesulfonylamino-ethyl)-amino]-2-[3-(2-piperidin-1-yl-ethylamino)-phenyl]-cyclopropanecarboxylic acid], the IC50 in assay [1] is below 1 µM; in assay [2], at least 10 µM.
Consider `O=C(O)[C@@]1(N(CCNS(=O)(=O)C(F)(F)F)S(=O)(=O)c2ccc(-c3ccc(Cl)cc3)cc2)C[C@H]1c1cccc(NS(=O)(=O)CCN2CCCCC2)c1` (relative stereo) [Example 1-90, (1R*,2S*)-1-[(4′-chloro-biphenyl-4-sulfonyl)-(2-trifluoromethanesulfonylamino-ethyl)-amino]-2-[3-(2-piperidin-1-yl-ethanesulfonylamino)-phenyl]-cyclopropanecarboxylic acid], for which the IC50 in assay [1] was below 1 µM; in assay [2], at least 10 µM.
For the compound `O=C(O)c1cccc(CN([C@]2(C(=O)O)C[C@H]2c2cccc(NCCN3CCCCC3)c2)S(=O)(=O)c2ccc(-c3ccc(Cl)cc3)cc2)c1` (relative stereo) [Example 1-91, 3-{[{(1R*,2S*)-1-carboxy-2-[3-(2-piperidin-1-yl-ethylamino)-phenyl]-cyclopropyl}-(4′-chloro-biphenyl-4-sulfonyl)-amino]-methyl}-benzoic acid], the IC50 was below 1 µM in assay [1] and at least 10 µM in assay [2].
For the compound `O=C(O)CCCN([C@]1(C(=O)O)C[C@H]1c1ccccc1)S(=O)(=O)c1ccc(-c2ccc(Cl)cc2)cc1` (relative stereo) [Example 1-93, (1R*,2S*)-1-[(3-carboxy-propyl)-(4′-chloro-biphenyl-4-sulfonyl)-amino]-2-phenyl-cyclopropanecarboxylic acid], the IC50 in assay [1] was below 1 µM; in assay [2] it was at least 10 µM.
For `O=C(CO)NCCN([C@]1(C(=O)O)C[C@H]1c1ccccc1)S(=O)(=O)c1ccc(-c2ccc(Cl)cc2)cc1` (relative stereo) [Example 1-96, (1R*,2S*)-1-{(4′-chloro-biphenyl-4-sulfonyl)-[2-(2-hydroxy-acetylamino)-ethyl]-amino}-2-phenyl-cyclopropanecarboxylic acid], the IC50 is below 1 µM in assay [1] and at least 10 µM in assay [2].
For `O=C(O)c1cccc(CN([C@]2(C(=O)O)C[C@H]2c2cccc(NC(=O)c3cccnc3)c2)S(=O)(=O)c2ccc(-c3ccc(Cl)cc3)cc2)c1` (relative stereo) [Example 1-99, 3-{[((1R*, 2S*)-1-carboxy-2-{3-[(pyridin-3-carbonyl)-amino]-phenyl}-cyclopropyl)-(4′-chloro-biphenyl-4-sulfonyl)-amino]-methyl}-benzoic acid], in that order: below 0.1 µM and at least 10 µM.
The like results for `O=C(O)c1cccc(CN([C@]2(C(=O)O)C[C@H]2c2cccc(OCCN3CCCC3)c2)S(=O)(=O)c2ccc(-c3ccc(Cl)cc3)cc2)c1` (relative stereo) [Example 1-100, 3-{[{(1R*,2S*)-1-carboxy-2-[3-(2-pyrrolidin-1-yl-ethoxy)-phenyl]-cyclopropyl}-(4′-chloro-biphenyl-4-sulfonyl)-amino]-methyl}-benzoic acid] were, in that order, below 1 µM and at least 10 µM.

The record behind these values is patent US20050222146A1, “N-substituted-n-sulfonylaminocyclopropane compounds and pharmaceutical use thereof” (priority 2003, published 2005).
